The results in this text go back to patent publication US20260028365A1 (BIOGEN MA INC., priority 2022, published 2026).

Structures can show the parent of a compound that is named as a salt. A value given as a limit tells only on which side of the number the result lay.

The target of one assay is Tyk2 (Homo sapiens (Human), UniProt P29597). Briefly: pSTAT4 Cell Assay (MSD, NK92 cells). The conditions noted are these: MSD. It is filed as cell-based.
For another assay, the target named is JH2 domain of human Tyk2 (Homo sapiens (Human), UniProt P29597). Description: JH2 Biochemical Assay (TR-FRET probe displacement). It is filed as binding. The conditions noted are these: JH2 domain of human Tyk2, TR-FRET probe displacement. Background: In TR-FRET formats the signal depends on donor and acceptor labels being close together.
Sequence of JH2 domain of human Tyk2 (P29597 575-876): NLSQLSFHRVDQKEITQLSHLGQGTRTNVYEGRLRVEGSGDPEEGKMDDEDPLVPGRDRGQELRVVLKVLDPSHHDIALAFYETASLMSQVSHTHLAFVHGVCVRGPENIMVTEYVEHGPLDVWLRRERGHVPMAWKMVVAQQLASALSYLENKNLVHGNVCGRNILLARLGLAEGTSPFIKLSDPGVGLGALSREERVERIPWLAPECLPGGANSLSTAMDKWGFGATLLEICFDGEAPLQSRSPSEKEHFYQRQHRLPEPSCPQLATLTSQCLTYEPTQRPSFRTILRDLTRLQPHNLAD

Sequence of Tyk2 (P29597 whole entry, the tested form may be a part): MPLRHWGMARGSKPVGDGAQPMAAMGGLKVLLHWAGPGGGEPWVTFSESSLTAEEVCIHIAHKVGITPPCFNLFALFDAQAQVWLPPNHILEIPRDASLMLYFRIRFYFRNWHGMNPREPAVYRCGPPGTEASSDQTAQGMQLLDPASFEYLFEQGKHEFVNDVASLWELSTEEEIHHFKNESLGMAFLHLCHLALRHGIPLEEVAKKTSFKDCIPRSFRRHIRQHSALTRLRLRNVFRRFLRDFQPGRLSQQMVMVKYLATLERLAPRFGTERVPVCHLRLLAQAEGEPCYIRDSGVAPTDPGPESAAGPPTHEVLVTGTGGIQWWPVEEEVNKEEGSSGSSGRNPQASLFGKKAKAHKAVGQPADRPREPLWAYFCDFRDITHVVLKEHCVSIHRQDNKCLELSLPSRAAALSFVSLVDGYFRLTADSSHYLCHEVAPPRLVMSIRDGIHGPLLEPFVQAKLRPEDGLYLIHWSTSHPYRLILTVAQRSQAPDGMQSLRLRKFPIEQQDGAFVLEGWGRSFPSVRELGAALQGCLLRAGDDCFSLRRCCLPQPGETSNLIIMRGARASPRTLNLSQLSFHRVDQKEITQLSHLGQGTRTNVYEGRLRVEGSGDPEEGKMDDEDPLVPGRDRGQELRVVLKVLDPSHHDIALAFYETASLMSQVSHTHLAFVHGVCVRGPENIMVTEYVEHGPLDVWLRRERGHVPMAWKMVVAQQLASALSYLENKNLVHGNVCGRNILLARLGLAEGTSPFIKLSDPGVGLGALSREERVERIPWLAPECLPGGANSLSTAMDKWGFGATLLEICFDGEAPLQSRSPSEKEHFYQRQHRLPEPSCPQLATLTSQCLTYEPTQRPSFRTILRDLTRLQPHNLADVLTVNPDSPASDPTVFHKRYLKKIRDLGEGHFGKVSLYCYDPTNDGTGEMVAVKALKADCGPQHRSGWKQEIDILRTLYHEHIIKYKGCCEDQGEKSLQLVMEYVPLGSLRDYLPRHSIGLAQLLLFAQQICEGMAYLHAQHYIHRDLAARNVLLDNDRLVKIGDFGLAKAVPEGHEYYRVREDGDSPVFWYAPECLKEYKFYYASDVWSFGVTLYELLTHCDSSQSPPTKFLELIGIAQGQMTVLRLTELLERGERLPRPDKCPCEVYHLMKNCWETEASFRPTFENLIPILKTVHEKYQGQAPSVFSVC

For the compound `COc1cnc(NC(C)=O)cc1Nc1cc(C)nc(C23COC(C2)C3)n1` [Example 448, N-(4-((2-(2-oxabicyclo[2.1.1]hexan-4-yl)-6-methylpyrimidin-4-yl)amino)-5-methoxypyridin-2-yl)acetamide], the IC50 (commonly the point on the concentration scale where inhibition reaches its midpoint) against Tyk2 fell in the range of 100 to 1000 nM; on JH2 domain of human Tyk2 it was 10 to 100 nM.
As to `COc1cnc(NC(C)=O)cc1Nc1cc(C)nc(C23COC(C)(C2)C3)n1` [Example 449, N-(5-methoxy-4-((6-methyl-2-(1-methyl-2-oxabicyclo[2.1.1]hexan-4-yl)pyrimidin-4-yl)amino)pyridin-2-yl)acetamide], the IC50 against Tyk2 was no less than 1000 nM; on JH2 domain of human Tyk2, 100 to 1000 nM.
Take `COc1cnc(NC(C)=O)cc1Nc1ccnc(C2CCOC2)n1` (centres unmarked) [Example 450, N-(5-methoxy-4-((2-(tetrahydrofuran-3-yl)pyrimidin-4-yl)amino)pyridin-2-yl)acetamide]: the IC50 was no less than 1000 nM against Tyk2 and 10 to 100 nM on JH2 domain of human Tyk2.
`COc1cnc(NC(C)=O)cc1Nc1cc(C)nc(C2CCOC2)n1` (centres unmarked) [Example 451, N-(5-methoxy-4-((6-methyl-2-(tetrahydrofuran-3-yl)pyrimidin-4-yl)amino)pyridin-2-yl)acetamide]: the results for the IC50 against Tyk2 and on JH2 domain of human Tyk2 were no less than 1000 nM and 10 to 100 nM, respectively.
Take `COc1cnc(NC(C)=O)cc1Nc1cc(OC2CCC2)nc(C(C)(F)F)n1` [Example 455, N-(4-((6-cyclobutoxy-2-(1,1-difluoroethyl)pyrimidin-4-yl)amino)-5-methoxypyridin-2-yl)acetamide trifluoroacetate]: the IC50 at Tyk2 and at JH2 domain of human Tyk2 was no more than 10 nM each time.
For `COc1cnc(NC(C)=O)cc1Nc1cc(OC2CC(C#N)C2)nc(C(C)(F)F)n1` (centres unmarked) [Example 456, N-(4-((6-(3-cyanocyclobutoxy)-2-(1,1-difluoroethyl)pyrimidin-4-yl)amino)-5-methoxypyridin-2-yl)acetamide], the IC50 against Tyk2 was 10 to 100 nM; on JH2 domain of human Tyk2, no more than 10 nM.
In the case of `CCOc1cnc(NC(C)=O)cc1Nc1cc(OC2CC(F)C2)nc(C(C)(F)F)n1` (centres unmarked) [Example 457, N-(4-((2-(1,1-difluoroethyl)-6-(3-fluorocyclobutoxy)pyrimidin-4-yl)amino)-5-ethoxypyridin-2-yl)acetamide trifluoroacetate], the IC50 at Tyk2 is 10 to 100 nM; at JH2 domain of human Tyk2, no more than 10 nM.
`CCOc1cnc(NC(C)=O)cc1Nc1cc(O[C@H]2C[C@@H](F)C2)nc(C(C)(F)F)n1` [Example 458, N-(4-((2-(1,1-difluoroethyl)-6-((1s,3s)-3-fluorocyclobutoxy)pyrimidin-4-yl)amino)-5-ethoxypyridin-2-yl)acetamide]: the IC50 against Tyk2 and on JH2 domain of human Tyk2 was no more than 10 nM in each case.
For the compound `CCOc1cnc(NC(C)=O)cc1Nc1cc(OC2CC(F)(F)C2)nc(C(C)(F)F)n1` [Example 459, N-(4-((6-(3,3-difluorocyclobutoxy)-2-(1,1-difluoroethyl)pyrimidin-4-yl)amino)-5-ethoxypyridin-2-yl)acetamide], the IC50 at Tyk2 is 10 to 100 nM; on JH2 domain of human Tyk2, no more than 10 nM.
In the case of `COc1cnc(NC(C)=O)cc1Nc1cc(OC2CC(F)(F)C2)nc(C(C)(F)F)n1` [Example 460, N-(4-((6-(3,3-difluorocyclobutoxy)-2-(1,1-difluoroethyl)pyrimidin-4-yl)amino)-5-methoxypyridin-2-yl)acetamide], the half-inhibitory concentration (IC50) on Tyk2 is 10 to 100 nM; at JH2 domain of human Tyk2, no more than 10 nM.
In the same order, the values of `COc1cnc(NC(C)=O)cc1Nc1cc(O[C@H]2C[C@@H](F)C2)nc(C(C)(F)F)n1` [Example 461, N-(4-((2-(1,1-difluoroethyl)-6-((1s,3s)-3-fluorocyclobutoxy)pyrimidin-4-yl)amino)-5-methoxypyridin-2-yl)acetamide] are 10 to 100 nM and no more than 10 nM.
For the compound `CCOc1cnc(NC(C)=O)cc1Nc1cc(OC2CCC2)nc(C(C)(F)F)n1` [Example 462, N-(4-((6-cyclobutoxy-2-(1,1-difluoroethyl)pyrimidin-4-yl)amino)-5-ethoxypyridin-2-yl)acetamide], the concentration for half-maximal inhibition (IC50) against Tyk2 and at JH2 domain of human Tyk2 was no more than 10 nM in each case.
For the compound `CCOc1cnc(NC(C)=O)cc1Nc1cc(OC2CC(C#N)C2)nc(C(C)(F)F)n1` (centres unmarked) [Example 463, N-(4-((6-(3-cyanocyclobutoxy)-2-(1,1-difluoroethyl)pyrimidin-4-yl)amino)-5-ethoxypyridin-2-yl)acetamide], the IC50 against Tyk2 and at JH2 domain of human Tyk2 was no more than 10 nM each time.
Take `CCOc1cnc(NC(C)=O)cc1Nc1cc(OC2CC(C)C2)nc(C(C)(F)F)n1` (centres unmarked) [Example 464, N-(4-((2-(1,1-difluoroethyl)-6-(3-methylcyclobutoxy)pyrimidin-4-yl)amino)-5-ethoxypyridin-2-yl)acetamide]: the half-inhibitory concentration (IC50) against Tyk2 and at JH2 domain of human Tyk2 was no more than 10 nM each time.
Consider `CC(=O)Nc1cc(Nc2cc(C)nc(C(C)(F)F)n2)c(OCC2CC(F)(F)C2)cn1` [Example 465, N-(5-((3,3-difluorocyclobutyl)methoxy)-4-((2-(1,1-difluoroethyl)-6-methylpyrimidin-4-yl)amino)pyridin-2-yl)acetamide], for which the IC50 at Tyk2 was 10 to 100 nM; on JH2 domain of human Tyk2 it was no more than 10 nM.
In the same order, the values of `CC(=O)Nc1cc(Nc2cc(C)nc(C(C)(F)F)n2)c(OCc2cccc(F)c2)cn1` [Example 466, N-(4-((2-(1,1-difluoroethyl)-6-methylpyrimidin-4-yl)amino)-5-((3-fluorobenzyl)oxy)pyridin-2-yl)acetamide] are 10 to 100 nM and no more than 10 nM.
As for `CC(=O)Nc1cc(Nc2cc(C)nc(C(C)(F)F)n2)c(OCc2ccc(F)c(F)c2)cn1` [Example 467, N-(5-((3,4-difluorobenzyl)oxy)-4-((2-(1,1-difluoroethyl)-6-methylpyrimidin-4-yl)amino)pyridin-2-yl)acetamide], the values for the IC50 on Tyk2 and at JH2 domain of human Tyk2 were 10 to 100 nM and no more than 10 nM, respectively.
For the compound `CC(=O)Nc1cc(Nc2cc(C)nc(C(C)(F)F)n2)c(OCc2cccnc2C)cn1` [Example 469, N-(4-((2-(1,1-difluoroethyl)-6-methylpyrimidin-4-yl)amino)-5-((2-methylpyridin-3-yl)methoxy)pyridin-2-yl)acetamide], the IC50 against Tyk2 was 100 to 1000 nM; at JH2 domain of human Tyk2, no more than 10 nM.
On to `CC(=O)Nc1cc(Nc2cc(C)nc(C(C)(F)F)n2)c(OCc2cnccc2C)cn1` [Example 470, N-(4-((2-(1,1-difluoroethyl)-6-methylpyrimidin-4-yl)amino)-5-((4-methylpyridin-3-yl)methoxy)pyridin-2-yl)acetamide], for which the IC50 against Tyk2 was 100 to 1000 nM; on JH2 domain of human Tyk2, no more than 10 nM.
Consider `CC(=O)Nc1cc(Nc2cc(C)nc(C(C)(F)F)n2)c(OCc2ncccc2C)cn1` [Example 471, N-(4-((2-(1,1-difluoroethyl)-6-methylpyrimidin-4-yl)amino)-5-((3-methylpyridin-2-yl)methoxy)pyridin-2-yl)acetamide], for which the IC50 on Tyk2 fell in the range of 100 to 1000 nM; at JH2 domain of human Tyk2, 10 to 100 nM.
For `COc1cccnc1COc1cnc(NC(C)=O)cc1Nc1cc(C)nc(C(C)(F)F)n1` [Example 472, N-(4-((2-(1,1-difluoroethyl)-6-methylpyrimidin-4-yl)amino)-5-((3-methoxypyridin-2-yl)methoxy)pyridin-2-yl)acetamide], the IC50 against Tyk2 lay in the range of 100 to 1000 nM; at JH2 domain of human Tyk2 it was 10 to 100 nM.
As to `CC(=O)Nc1cc(Nc2cc(C)nc(C(C)(F)F)n2)c(OCc2ccncc2)cn1` [Example 473, N-(4-((2-(1,1-difluoroethyl)-6-methylpyrimidin-4-yl)amino)-5-((pyridin-4-yl)methoxy)pyridin-2-yl)acetamide], the values for the IC50 against Tyk2 and at JH2 domain of human Tyk2 were 10 to 100 nM and no more than 10 nM, respectively.
